Measurements taken from US8691804B2 (Evotec AG, priority 2008, dated 2014).

target: T1, human H3 receptors (Homo sapiens, UniProt Q9Y5N1); test: cAMP quantification assay for human H3 receptor testing; format: cell-based; conditions: CHO-K1 cells expressing human H3 receptors; inhibition of agonist-induced decrease of cAMP; 100 nM histamine, 10 μM forskolin; read-out: Potency range (IC50 values)
T1 construct: host or cells: CHO-K1
Protocol: CHO—K1 cell line expressing human H3 receptors were purchased from Euroscreen (Gosselies, Belgium, Cat. no.: ES-392-C)
Human H3 receptor-expressing cell-lines were grown in Ham's F12 [Sigma, Cat. no. N6658], supplemented with 10% FBS [Sigma, Cat. no. F9665], 400 μg/ml G418 [Sigma, Cat. no. N1876] and 250 μg/ml Zeocin [Invitrogen, Cat. no. 46-0509]) according to the protocol provided by Euroscreen.
The assay measures the ability of test compounds to inhibit Histamine receptor agonist-induced decrease of intracellular free cAMP (receptor is Gi coupled).
Specifically, a cAMP quantification assay system from DiscoveRx (cAMP XS+; Cat. no. 90-0075) was used.
For the cAMP assay, confluent cells were detached from the culture vessels with 1× trypsin-EDTA solution (Sigma), and seeded into 384-well Costar plates (white, clear bottom, Cat. no. 3707) at a density of 10,000 cells per well. Cells were seeded in a volume of 50 μl in medium without antibiotics and incubated overnight in a humidified atmosphere with 5% CO2 at 37° C. The cAMP assay was performed according to the protocol provided by DiscoveRx.
The cell culture medium was removed and the cells washed once with PBS (50 μl per well). The plates were emptied by inversion and 7.5 μl/well of compound in PBS (containing 1 mM IBMX and 0.03% BSA) were added and incubated for 30 min at 37° C.
Subsequent 7.5 μl/well specific agonist solution was added and the plates for another 30 min incubated at 37° C.
hH3:100 nM histamine, 10 μM forskolin in PBS (containing 1 mM IBMX and 0.03% BSA)
After the incubation with the agonist, 5 μl/well cAMP XS antibody solution was added followed by 20 μl/well Gal/EII/Lysis (1:5:19)+ED (1:1). The plates were incubated for one hour at room temperature and afterwards 20 μl/well EA reagent was added. The luminescence was developed for approximately three hours at room temperature and the plates were read out using a ‘BMG Novostar’ plate reader.
Test compounds were assayed at 8 concentrations in triplicate. Serial 10-fold dilutions in 100% DMSO were made at a 100-times higher concentration than the final concentration and then diluted with a 2 step protocol in assay buffer to reach the required assay concentrations and 1% DMSO. […]

T1 sequence (Q9Y5N1 whole entry): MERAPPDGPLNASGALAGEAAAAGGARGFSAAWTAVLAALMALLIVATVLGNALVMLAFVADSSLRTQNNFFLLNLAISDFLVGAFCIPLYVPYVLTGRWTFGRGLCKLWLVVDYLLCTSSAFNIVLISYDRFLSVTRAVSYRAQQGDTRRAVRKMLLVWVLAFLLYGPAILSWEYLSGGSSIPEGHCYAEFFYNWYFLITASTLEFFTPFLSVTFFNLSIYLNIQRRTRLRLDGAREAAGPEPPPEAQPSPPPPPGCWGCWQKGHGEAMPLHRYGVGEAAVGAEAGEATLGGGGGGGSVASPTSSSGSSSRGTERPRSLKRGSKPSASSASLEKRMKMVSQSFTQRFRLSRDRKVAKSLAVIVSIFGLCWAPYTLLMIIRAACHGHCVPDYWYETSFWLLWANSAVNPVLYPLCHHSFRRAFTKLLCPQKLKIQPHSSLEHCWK

`O=C(N1CCN(C2CCC2)CC1)N1CC(Oc2ccc(C(F)(F)F)cc2)C1` [Example 39, 1-cyclobutyl-4-({3-[4-(trifluoromethyl)phenoxy]azetidin-1-yl}carbonyl)piperazine] and `O=C(N1CCCN(C2CCC2)CC1)N1CC(Oc2ccc(C(F)(F)F)cc2)C1` [Example 10, 1-cyclobutyl-4-({3-[4-(trifluoromethyl)phenoxy]azetidin-1-yl}carbonyl)-1,4-diazepane] cannot be ordered by IC50: less than 100 nM for the first, less than 100 nM for the second.

`CN1CCc2cc(OCC3CN(C(=O)N4CCCN(C5CCC5)CC4)C3)ccc2C1=O` [Example 137, 6-({1-[(4-cyclobutyl-1,4-diazepan-1-yl)carbonyl]azetidin-3-yl}methoxy)-2-methyl-3,4-dihydroisoquinolin-1(2H)-one] and `CN1CCc2cc(OC3CN(C(=O)N4CCCN(C5CCC5)CC4)C3)ccc2C1=O` [Example 117, 6-({1-[(4-cyclobutyl-1,4-diazepan-1-yl)carbonyl]azetidin-3-yl}oxy)-2-methyl-3,4-dihydroisoquinolin-1(2H)-one] cannot be ordered by IC50: less than 100 nM for the first, less than 100 nM for the second.

`CNC(=O)c1ccc(OC2CN(C(=O)N3CCCN(C4CCC4)CC3)C2)cc1` [Example 8, 4-({1-[(4-cyclobutyl-1,4-diazepan-1-yl)carbonyl]azetidin-3-yl}oxy)-N-methylbenzamide] and `COc1ccc(OC2CN(C(=O)N3CCCN(C4CCC4)CC3)C2)cc1` [Example 86, 1-cyclobutyl-4-{[3-(4-methoxyphenoxy)azetidin-1-yl]carbonyl}-1,4-diazepane] cannot be ordered by IC50: less than 100 nM for the first, less than 100 nM for the second.

`CNC(=O)c1ccc(OC2CN(C(=O)N3CCCN(C4CCCC4)CC3)C2)cn1` [Example 115, 5-({1-[(4-cyclopentyl-1,4-diazepan-1-yl)carbonyl]azetidin-3-yl}oxy)-N-methylpyridine-2-carboxamide] and `CNC(=O)c1ccc(OCC2CN(C(=O)N3CCCN(C4CCC4)CC3)C2)cn1` [Example 138, 5-({1-[(4-cyclobutyl-1,4-diazepan-1-yl)carbonyl]azetidin-3-yl}methoxy)-N-methylpyridine-2-carboxamide] cannot be ordered by IC50: less than 100 nM for the first, less than 100 nM for the second.

`O=C(N1CCCN(C2CCC2)CC1)N1CC(Oc2ccc(OC(F)F)cc2)C1` [Example 89, 1-cyclobutyl-4-({3-[4-(difluoromethoxy)phenoxy]azetidin-1-yl}carbonyl)-1,4-diazepane] and `O=C(N1CCCN(C2CCC2)CC1)N1CC(Oc2ccncc2)C1` [Example 81, 1-cyclobutyl-4-{[3-(pyridin-4-yloxy)azetidin-1-yl]carbonyl}-1,4-diazepane] cannot be ordered by IC50: less than 100 nM for the first, less than 100 nM for the second.

`Cc1ccc(OC2CN(C(=O)N3CCCN(C4CCC4)CC3)C2)cn1` [Example 121, 1-cyclobutyl-4-({3-[(6-methylpyridin-3-yl)oxy]azetidin-1-yl}carbonyl)-1,4-diazepane] and `COc1ccc(OC2CN(C(=O)N3CCCN(C4CCC4)CC3)C2)nc1` [Example 161, 1-cyclobutyl-4-({3-[(5-methoxypyridin-2-yl)oxy]azetidin-1-yl}carbonyl)-1,4-diazepane] cannot be ordered by IC50: less than 100 nM for the first, less than 100 nM for the second.

First: O=C(N1CCN(C2CCC2)CC1)N1CC(O)C1 [Example 2, 1-[(4-cyclobutylpiperazin-1-yl)carbonyl]azetidin-3-ol]
Second: Cc1nccc(OC2CN(C(=O)N3CCCN(C4CCC4)CC3)C2)n1 [Example 65, 1-cyclobutyl-4-({3-[(2-methylpyrimidin-4-yl)oxy]azetidin-1-yl}carbonyl)-1,4-diazepane]
The IC50 of the first is higher: 500 to 5000 nM for the first, less than 100 nM for the second. The second is the more potent here.

`O=C(N1CCCN(C2CCC2)CC1)N1CC(COc2ccc(Cl)cc2)C1` [Example 135, 1-({3-[(4-chlorophenoxy)methyl]azetidin-1-yl}carbonyl)-4-cyclobutyl-1,4-diazepane] and `O=C(N1CCCN(C2CCC2)CC1)N1CC(Oc2ccc(Cl)cc2F)C1` [Example 90, 1-{[3-(4-chloro-2-fluorophenoxy)azetidin-1-yl]carbonyl}-4-cyclobutyl-1,4-diazepane] cannot be ordered by IC50: less than 100 nM for the first, less than 100 nM for the second.

`O=C(C1CC1)N1CCc2nc(OC3CN(C(=O)N4CCCN(C5CCC5)CC4)C3)ccc2C1` [Example 83, 2-({1-[(4-cyclobutyl-1,4-diazepan-1-yl)carbonyl]azetidin-3-yl}oxy)-6-(cyclopropylcarbonyl)-5,6,7,8-tetrahydro-1,6-naphthyridine] and `O=C(N1CCCN(C2CCC2)CC1)N1CC(Oc2ccc3c(n2)CCN(C2CCC2)C3)C1` [Example 42, 6-cyclobutyl-2-({1-[(4-cyclobutyl-1,4-diazepan-1-yl)carbonyl]azetidin-3-yl}oxy)-5,6,7,8-tetrahydro-1,6-naphthyridine] cannot be ordered by IC50: less than 100 nM for the first, less than 100 nM for the second.

`CC(C)(O)c1ccc(OC2CN(C(=O)N3CCCN(C4CCC4)CC3)C2)cc1F` [Example 60, 2-[4-({1-[(4-cyclobutyl-1,4-diazepan-1-yl)carbonyl]azetidin-3-yl}oxy)-2-fluorophenyl]propan-2-ol] and `CC(C)(O)c1cc(OC2CN(C(=O)N3CCCN(C4CCC4)CC3)C2)ccn1` [Example 53, 2-[4-({1-[(4-cyclobutyl-1,4-diazepan-1-yl)carbonyl]azetidin-3-yl}oxy)pyridin-2-yl]propan-2-ol] cannot be ordered by IC50: less than 100 nM for the first, less than 100 nM for the second.

`N#Cc1ccc(O[C@H]2C[C@@H](C(=O)N3CCCN(C4CCC4)CC3)C2)cc1` [Example 103, 4-({cis-3-[(4-cyclobutyl-1,4-diazepan-1-yl)carbonyl]cyclobutyl}oxy)benzonitrile] and `N#Cc1ccc(O[C@H]2C[C@H](C(=O)N3CCCN(C4CCC4)CC3)C2)cc1` [Example 106, 4-({trans-3-[(4-cyclobutyl-1,4-diazepan-1-yl)carbonyl]cyclobutyl}oxy)benzonitrile] cannot be ordered by IC50: less than 100 nM for the first, less than 100 nM for the second.

`O=C(NC1CCCCC1)C1CN(C(=O)N2CCCN(C3CCC3)CC2)C1` [Example 131, 1-[(4-cyclobutyl-1,4-diazepan-1-yl)carbonyl]-N-cyclohexylazetidine-3-carboxamide] and `O=C(C1CN(C(=O)N2CCCN(C3CCC3)CC2)C1)N1CCCCCC1` [Example 128, 1-{[3-(azepan-1-ylcarbonyl)azetidin-1-yl]carbonyl}-4-cyclobutyl-1,4-diazepane] cannot be ordered by IC50: less than 100 nM for the first, less than 100 nM for the second.

`Cc1nccc(OC2CN(C(=O)N3CCCN(C4CCC4)CC3)C2)c1F` [Example 151, 1-cyclobutyl-4-({3-[(3-fluoro-2-methylpyridin-4-yl)oxy]azetidin-1-yl}carbonyl)-1,4-diazepane] and `O=C(N1CCCN(C2CCC2)CC1)N1CC(Oc2ccncc2F)C1` [Example 49, 1-cyclobutyl-4-({3-[(3-fluoropyridin-4-yl)oxy]azetidin-1-yl}carbonyl)-1,4-diazepane] cannot be ordered by IC50: less than 100 nM for the first, less than 100 nM for the second.

`Cc1cnc(C)c(OC2CN(C(=O)N3CCCN(C4CCC4)CC3)C2)n1` [Example 64, 1-cyclobutyl-4-({3-[(3,6-dimethylpyrazin-2-yl)oxy]azetidin-1-yl}carbonyl)-1,4-diazepane] and `O=C(N1CCCN(C2CCC2)CC1)N1CC(Oc2ncc(F)cn2)C1` [Example 160, 1-cyclobutyl-4-({3-[(5-fluoropyrimidin-2-yl)oxy]azetidin-1-yl}carbonyl)-1,4-diazepane] cannot be ordered by IC50: less than 100 nM for the first, less than 100 nM for the second.

`O=C1NCCc2cc(OC3CN(C(=O)N4CCCN(C5CCC5)CC4)C3)ccc21` [Example 116, 6-({1-[(4-cyclobutyl-1,4-diazepan-1-yl)carbonyl]azetidin-3-yl}oxy)-3,4-dihydroisoquinolin-1(2H)-one] and `O=C1NCCc2cc(OCC3CN(C(=O)N4CCCN(C5CCC5)CC4)C3)ccc21` [Example 136, 6-({1-[(4-cyclobutyl-1,4-diazepan-1-yl)carbonyl]azetidin-3-yl}methoxy)-3,4-dihydroisoquinolin-1(2H)-one] cannot be ordered by IC50: less than 100 nM for the first, less than 100 nM for the second.

`CNC(=O)c1ccc(OC2CN(C(=O)N3CCCN(C(C)C)CC3)C2)cn1` [Example 114, 5-({1-[(4-(1-methylethyl)-1,4-diazepan-1-yl)carbonyl]azetidin-3-yl}oxy)-N-methylpyridine-2-carboxamide] and `COc1cncc(OC2CN(C(=O)N3CCCN(C4CCC4)CC3)C2)c1` [Example 82, 1-cyclobutyl-4-({3-[(5-methoxypyridin-3-yl)oxy]azetidin-1-yl}carbonyl)-1,4-diazepane] cannot be ordered by IC50: less than 100 nM for the first, less than 100 nM for the second.

`COc1ccccc1OC1CN(C(=O)N2CCCN(C3CCC3)CC2)C1` [Example 92, 1-cyclobutyl-4-{[3-(2-methoxyphenoxy)azetidin-1-yl]carbonyl}-1,4-diazepane] and `Cc1ccc(NC(=O)C2CN(C(=O)N3CCCN(C4CCC4)CC3)C2)cn1` [Example 132, 1-[(4-cyclobutyl-1,4-diazepan-1-yl)carbonyl]-N-(6-methylpyridin-3-yl)azetidine-3-carboxamide] cannot be ordered by IC50: less than 100 nM for the first, less than 100 nM for the second.
